Test [1] has as its system pphz1-lux in WT P. aeruginosa. Description: P. aeruginosa pphz1-lux bioluminescent reporter assay. Conditions: for IC50: Pseudomonas aeruginosa, PA14, read-out: IC50 PA14; for IC50 values in P. aeruginosa: pphz1-lux in WT P. aeruginosa. The class given is cell-based, Pseudomonas aeruginosa PA14. As for the experimental part: Strains were struck onto LB agar and grown overnight at 37 °C. The following day, individual colonies were isolated and transferred into LB liquid medium followed by incubation at 37 °C. After overnight growth, cultures were diluted 1:1000 into M9 medium. 100 μL of these suspensions were aliquoted into wells of 96 well plates (Corning). Plates were incubated for 24 h at 37 °C in a BioSpa Automated Incubator (Agilent). Light production and OD600 were quantified from each well at either 15 or 20 min intervals (Neo2, Agilent). When noted, SPR741 (DC Chemicals) was added at the specified concentration.
One thousand small molecules from the initial screen were selected for retesting, following the identical protocol used for the screen. Of these molecules, 751 were assayed for luciferase inhibition using P. aeruginosa containing ptac-lux instead of pphz1-lux. Any compound that inhibited this reporter by at least 50% was eliminated from the pipeline. One hundred and sixty-seven compounds were further analyzed in dilution series to determine IC50 values with respect to pphz1-lux inhibition. A ten-point, 2-fold serial dilution series was made of each test compound in DMSO solvent. The highest tested concentration was 40 μM. These assays were carried out in 384 well plates (Corning) as described above using both the P. aeruginosa ptac-lux and pphz1-lux reporter strains.

The target of test [2] is T1, PqsR (Pseudomonas aeruginosa, UniProt Q9I4X0).
T1 construct: expressed in transfected cells; host or cells: Escherichia coli carrying pBAD-pqsR and pCS26-ppqsA-luxCDABE
Description: E. coli PqsR/ppqsA-lux reporter assay. The class given is cell-based. An excerpt:
To determine the target(s) of the 49 hit compounds in P. aeruginosa, we assayed them in a set of E. coli-based reporter strains that read out exclusively RhlR, LasR, or PqsR function. The three assays work by a similar logic. In each case, the gene encoding one of the three quorum-sensing receptors is driven by an arabinose-inducible promoter. The receptor proteins, once made, are activated by exogenously supplied cognate autoinducer. The receptor–autoinducer complexes activate a target gene promoter fused to luciferase (prhlA-lux for RhlR, plasB-lux for LasR, and ppqsA-lux for PqsR). […] To further verify that PqsR is the target of our inhibitors, we assessed whether production of PQS and its precursor, HHQ, declined following treatment of WT P. aeruginosa with one test compound, A7. […] Below, we focus on these 30 compounds that we propose target PqsR. The other 19 compounds will be characterized at a later time.
As previously reported, following overnight growth in LB liquid medium at 37 °C, E. coli reporter strains were diluted 1:1000 in LB liquid medium containing 1% arabinose (PqsR) or 0.1% arabinose (LasR and RhlR). The reporter strain for PqsR activity carried pCS26-ppqsA-luxCDABE and pBAD-pqsR. The reporter strain for LasR activity carried pCS26-plasB-luxCDABE and pBAD-lasR; the reporter strain for RhlR activity carried pCS26-prhlA-luxCDABE and pBAD-rhlR. Test compounds were added at the specified concentrations. To activate PqsR, PQS was added at 100 nM. To activate LasR, 3O-C12-HSL was added at 5 nM. To activate RhlR, C4-HSL was added at 10 μM. To establish IC50 values, 10-point, […] serial dilution series were made starting at 100 μM of each compound. The mixtures were incubated at 37 °C for 24 h (BioSpa, Agilent). Bioluminescence and OD600 were assessed every 15 min (Neo2, Agilent). Readings from the 9 h time point, representing peak signal production, were used to calculate the IC50 values.

The test system of test [3] is WT P. aeruginosa. Description: Quinolone (HHQ, PQS) quantitation by LCMS in culture fluids. The class given is cell-based, Pseudomonas aeruginosa. To be noted: WT P. aeruginosa treated with 100 μM compound; compared with ΔpqsR. As for the experimental part: For all assays: the designated P. aeruginosa strains were grown as described above for the pyocyanin inhibition assay. Following overnight growth, culture fluids were separated from cells by centrifugation and filtration.
For quinolone quantitation: cell-free culture fluids were extracted with 2 mL of ethyl acetate that had been acidified with 0.15 mL/L glacial acetic acid. The organic layer was isolated and dried down in vacuo. Dried samples were resuspended in 50 μL of methanol and analyzed by LCMS on an Agilent 1290 Infinity II HPLC connected to an MSD iQ. The injection was 2 μL. The mobile phase was a water–MeCN gradient containing 0.1% formic acid. Chromatography was performed as follows: 2 min hold at 5% […], ramp up to 95% MeCN over 8 min hold for 2 min at 95% MeCN, return to 5% MeCN and re-equilibrate for 1 min. Data were acquired in positive mode scanning between m/z 100–1000. Source parameters for acquisition were as follows: gas temperature 325 °C, gas flow 11 (L/min), capillary voltage 3500 V. Data were processed using Agilent OpenLAB CDS. Peaks were extracted by m/z, quantified by area under the curve. Each compound was compared to a 100 ng/μL commercial standard of PQS or HHQ.

The subject of test [4] is WT P. aeruginosa. As to the kind of experiment: Real time PCR of phzH and phzS. The class given is cell-based, Pseudomonas aeruginosa. Conditions: 100 μM compound, qPCR relative to DMSO. Here is the method: Following overnight growth in LB at 37 °C with aeration, P. aeruginosa strains were diluted to an OD600 of 0.001 and grown to an OD600 of 3 at 37 °C with aeration. 500 μL of cells were collected by centrifugation and flash frozen. RNA was extracted using RNAeasy Plus mini columns (Qiagen). DNA was removed, followed by cDNA synthesis, using SuperScript IV VILO Master Mix with ezDNase Enzyme (Invitrogen). RNA was quantified using PerfeCTa SYBR Green FastMix Low ROX (Quanta BioSciences). Relative quantity is calculated by ΔΔCt compared to DMSO treatment and the reference gene, rpsL. Outliers with values higher or lower than twice the standard deviation of the mean were removed.

Test [5] deals with WT P. aeruginosa. Description: Pyocyanin inhibition assay. Conditions: 100 μM compound. The class given is cell-based, Pseudomonas aeruginosa. As for the experimental part: WT P. aeruginosa and the ΔpqsE mutant were struck onto LB agar and grown overnight at 37 °C. Individual colonies were diluted into 5 mL of LB liquid medium. Aliquots were transferred into glass tubes containing test compounds with and without 8 μg/mL SPR741. WT P. aeruginosa to which DMSO had been added served as the negative control. The P. aeruginosa ΔpqsE strain to which DMSO had been added served as the positive control. Compounds were tested at 100 μM. Tubes were shaken for 18 h at 37 °C followed by centrifugation at 15,000 rpm for 5 min. Cell-free culture fluids were collected and assessed for pyocyanin by absorbance at 695 nm. Values were normalized by culture density, using absorbance at OD600. Percent inhibition of OD695/OD600 was normalized to the DMSO control.

T1 sequence (Q9I4X0 whole entry): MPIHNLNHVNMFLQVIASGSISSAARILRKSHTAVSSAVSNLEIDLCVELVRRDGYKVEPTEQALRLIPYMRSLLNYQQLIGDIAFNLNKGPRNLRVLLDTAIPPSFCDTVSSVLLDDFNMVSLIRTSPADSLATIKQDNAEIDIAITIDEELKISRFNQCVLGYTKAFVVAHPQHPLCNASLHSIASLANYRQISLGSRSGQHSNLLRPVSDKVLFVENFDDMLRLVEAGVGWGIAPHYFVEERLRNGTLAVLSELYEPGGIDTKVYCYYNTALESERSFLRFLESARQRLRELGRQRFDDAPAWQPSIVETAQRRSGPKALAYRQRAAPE

For the compound `N#Cc1cc(CN2CCC3(CC2)CC(Nc2ncccn2)C3)ccc1F` [Compound A7], the IC50 in test [1] stood at 2200 ± 230 nM. In test [2], this compound yielded an IC50 of 510 ± 160 nM. Also, in test [3], the “production of HHQ” value is reported as “reduced to the level made by the P. aeruginosa ΔpqsR strain” and the “production of PQS” value is “reduced to the level made by the P. aeruginosa ΔpqsR strain”.
As for `N#Cc1ccc(NCC2CCC3(COCCN(Cc4ccccc4OC(F)F)C3)O2)nc1` (stereo not shown) [Compound A8], in test [1], the IC50 stood at 800 ± 200 nM and the “IC50 values in P. aeruginosa” value is listed as “submicromolar”. This compound also returned an IC50 in test [2] of 1900 ± 440 nM. In addition, in test [4], the phzH expression result is listed as “reduction only to the level displayed by the ΔpqsE mutant” and the phzS expression entry is on record as “reduced to the level in the ΔpqsE strain”.
For the compound `N#Cc1cccc(CNCC2Cn3nnc(-c4ccccc4)c3CO2)c1` (stereo not shown) [Compound A9], the IC50 in test [1] stood at 38000 ± 2400 nM; in test [2], 3900 ± 650 nM.
On the same counts, the results for `CC(C)Oc1ccc(N2CC(C(=O)Nc3cccc(Cl)c3Cl)CC2=O)cc1` (stereo not shown) [Compound B2] are 4900 ± 260 nM and 4700 ± 560 nM.
On the same counts, the results for `Cc1nn(-c2ccccc2)c(-n2cccc2)c1C(=O)N1CCC(C(=O)NCCc2ccccc2)CC1` [Compound B3] are 2000 ± 280 nM and 5200 ± 1700 nM.
On the same counts, the results for `O=C(Nc1nnc(C(F)(F)F)s1)C1CC(=O)N(CCc2c[nH]c3ccc(Cl)cc23)C1` (stereo not shown) [Compound B4] are 2800 ± 100 nM and 590 ± 70 nM.
For `O=S(=O)(c1ccc(-c2cc(C(F)(F)F)n[nH]2)s1)N1CC=C(c2ccccc2)CC1` [Compound B6], in test [1], the IC50 stood at 400 ± 30 nM and the “IC50 values in P. aeruginosa” value is listed as “submicromolar”. For the same compound, in test [2], the concentration for half-maximal inhibition (IC50) is 550 ± 120 nM.
For the compound `O=S(=O)(Nc1ccc(F)cc1Cl)c1ccc(-c2cc(C(F)(F)F)n[nH]2)s1` [Compound B7], the IC50 in test [1] was determined as 3500 ± 360 nM; in test [2] it was 3800 ± 300 nM.
On the same counts, the results for `CCOc1ccc(-n2nnnc2CNC(=O)Nc2cccc(Cl)c2)cc1` [Compound B8] are 6400 ± 1000 nM and 2370 ± 770 nM.
Turning to `Cc1ccc(C(=O)NCc2nc(-c3ccc(Oc4ccccc4)cc3)no2)cc1` [Compound B9], inhibition in test [2] was half-maximal at 2000 ± 240 nM (IC50).
On to `O=C(NC(C(=O)N1CCOCC1)C12CC3CC(CC(C3)C1)C2)c1ccc([N+](=O)[O-])cc1` (stereo not shown) [Compound B10], for which, in test [1], the IC50 was 10500 ± 1400 nM.
Regarding `O=C(Cn1cnc2c(oc3ccccc32)c1=O)N1CCC(Cc2ccccc2)CC1` [Compound B12], the values for the IC50 in test [1] and in test [2] were 10500 ± 1200 nM and 14500 ± 1900 nM, respectively.
The compound `O=C(NCc1cccs1)C1CCN(c2ccc3nnc(-c4ccccc4F)n3n2)CC1` [Compound B13] had a concentration for half-maximal inhibition (IC50) in test [2] of 11900 ± 980 nM.
For the compound `CC(=O)c1cc(-c2ccccc2)n(CC(=O)Nc2nc3ccc(C)cc3s2)c1C` [Compound B14], the results for the half-maximal inhibitory concentration (IC50) in test [1] and in test [2] were 11400 ± 900 nM and 14500 ± 3390 nM, respectively.
On the same counts, the results for `O=C(CN1CCC(c2nc(-c3cccc(F)c3)no2)CC1)Nc1ccccc1` [Compound B15] are 8600 ± 190 nM and 7040 ± 1180 nM.
For `COc1cccc(-c2nc(CC(=O)Nc3ccc(F)cc3)no2)c1` [Compound C2], in that order: 3200 ± 80 nM and 830 ± 170 nM.
Compound `O=C(Cn1nnc(-c2ccccc2)n1)Nc1ccc(Br)cc1` [Compound C6] displayed an IC50 in test [2] of 370 ± 80 nM.
In the case of `N#Cc1cnc(SCC(=O)Nc2ccc(Cl)c(Br)c2)nc1N` [Compound C7], the half-maximal inhibitory concentration (IC50) in test [1] is 2400 ± 400 nM; in test [2], 670 ± 80 nM.
`O=C(NC1CCN(Cc2cc(F)cc(F)c2)CC1)c1cc(C(F)(F)F)n[nH]1` [Compound C8]: the IC50 in test [1] was found to be 3900 ± 380 nM; in test [2], 270 ± 40 nM.
On the same counts, the results for `Oc1cc(CN2CCC(CCn3cccn3)CC2)nc2ccc(F)cc12` [Compound C9] are 7600 ± 250 nM and 210 ± 80 nM.
As to `CCOC1CCN(C(=O)c2cccc(-c3ccc(OC(F)F)cc3)c2)CC1` [Compound C10], in test [1], the IC50 came to 4400 ± 160 nM.
On to `Cc1noc(CN2CCCC(CCC(=O)Nc3ccc(C(F)(F)F)cc3)C2)n1` (stereo not shown) [Compound C11], for which the IC50 is 2800 ± 190 nM in test [1] and 2940 ± 830 nM in test [2].
`Cc1cc(Br)ccc1NC(=O)CNC(=O)c1ccc(-n2cnc3ccccc32)cc1` [Compound D1]: the half-maximal inhibitory concentration (IC50) in test [1] amounted to 3900 ± 320 nM; in test [2], 1990 ± 880 nM. Also, in test [5], the “pyocyanin inhibition without versus with SPR741” value is recorded as “improved pyocyanin inhibition in the absence of SPR741 compared to in its presence”.
With `N#CCc1ccc(NC(=O)CNc2ccc(C(F)(F)F)cc2)cc1` [Compound D2], the IC50 was 2300 ± 20 nM in test [1] and 1320 ± 170 nM in test [2].
On the same counts, the results for `COc1ccc(Cl)cc1C(=O)NCC(O)C1CCCCC1` (stereo not shown) [Compound D3] are 8200 ± 770 nM and 8390 ± 75 nM.
On the same counts, the results for `Cc1cc(Br)ccc1OCCn1cnc2ccccc2c1=O` [Compound D4] are 1100 ± 28 nM and 1230 ± 310 nM.
Take `O=C(NCc1ccc(OC(F)F)cc1)c1ccc(C2SCCS2)cc1` [Compound D6]: in test [1], the IC50 amounted to 530 ± 28 nM and the “IC50 values in P. aeruginosa” value is on record as “submicromolar”. Besides, in test [2], half-maximal inhibition (IC50) required 420 ± 45 nM.
Regarding `O=C(c1csc2nc(-c3ccc(F)cc3)cn12)N1CCN(c2ccccc2F)CC1` [Compound E3], the IC50 in test [1] is 5000 ± 260 nM.
On to `O=C(Nc1ccc(Cl)c(Cl)c1)c1ccc(=O)n(Cc2cccc(F)c2)n1` [Compound E5], for which the results for the IC50 in test [1] and in test [2] were 2300 ± 120 nM and 2870 ± 840 nM, respectively.
With `CC(C)C(C(=O)O)N1C(=O)C(=Cc2cccc(Br)c2)SC1=S` (stereo not shown) [Compound E6], the IC50 in test [1] was found to be 9700 ± 490 nM.

Source of the values: paper PMC12186256, “Inhibitors of the PqsR Quorum-Sensing Receptor Reveal Differential Roles for PqsE and RhlI in Control of Phenazine Production” (ACS Chemical Biology, 2025).
